In US20190119282A1, “IMIDAZOPYRIDAZINES USEFUL AS INHIBITORS OF THE PAR-2 SIGNALING PATHWAY” (Vertex Pharmaceuticals Incorporated, priority 2013, published 2019) one finds IC50 data, which are given here for 31 molecules.

The test system of experiment [1] is Thrombin-stimulated Ca2+ response in HT-29 cells. Description: Ca FLIPR TETRA assay, ANTAGONIST mode, stimulation with 1 U/mL Thrombin. The following applies: Homo sapiens; HT-29 cells, antagonist mode, stimulation with 1 U/mL Thrombin. The experiment is classed as cell-based, human. The essentials:
(§1)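 HT-29 cells grown overnight in 1% FBS McCoy's medium were loaded with calcium 5 dye (45 min 37 °C, 15 min r.t.). Compounds were added and Ca2+ read for direct activation, then after 30 min at r.t. cells were stimulated with 8 μM SLIGKV, 1 U/mL thrombin, 3.1 U/mL trypsin or 0.6 μM UTP (final).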

The target of experiment [2] is T1, PAR2 (HT-29 cells, trypsin activation) (Homo sapiens, UniProt P55085).
T1 construct: host or cells: HT-29 cells
T1 sequence (P55085 26-397): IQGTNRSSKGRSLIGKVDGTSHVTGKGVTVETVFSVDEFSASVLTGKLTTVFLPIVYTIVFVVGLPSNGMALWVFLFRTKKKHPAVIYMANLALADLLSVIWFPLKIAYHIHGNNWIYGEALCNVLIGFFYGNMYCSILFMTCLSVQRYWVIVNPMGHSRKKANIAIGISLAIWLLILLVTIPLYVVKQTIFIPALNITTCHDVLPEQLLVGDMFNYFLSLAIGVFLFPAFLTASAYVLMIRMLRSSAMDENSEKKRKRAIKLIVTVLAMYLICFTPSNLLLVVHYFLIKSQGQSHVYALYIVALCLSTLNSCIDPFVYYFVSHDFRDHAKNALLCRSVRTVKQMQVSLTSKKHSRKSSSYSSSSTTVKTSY
Description: Ca FLIPR TETRA assay, ANTAGONIST mode, stimulation with 3.1 U/mL trypsin. The format is cell-based. The following applies: HT-29 cells, antagonist mode, stimulation with 3.1 U/mL trypsin. The essentials:
as §1

Experiment [3] has as its target T2, PAR2 (HT-29 cells, SLIGKV activation) (Homo sapiens, UniProt P55085).
T2 construct: host or cells: HT-29 cells
T2 sequence (P55085 26-397): T1 sequence (P55085 26-397)
Description: Ca FLIPR TETRA assay, ANTAGONIST mode, stimulation with 8 μM SLIGKV. The experiment is classed as cell-based. Conditions: HT-29 cells, antagonist mode, stimulation with 8 μM SLIGKV. The essentials: as §1

Experiment [4] concerns UTP-stimulated Ca2+ response in HT-29 cells. Description: Ca FLIPR TETRA assay, ANTAGONIST mode, stimulation with 0.6 μM UTP. The experiment is classed as cell-based, human. Conditions: Homo sapiens; HT-29 cells, antagonist mode, stimulation with 0.6 μM UTP. The essentials:
as §1

For the molecule `Cc1cc(C(=O)N2CCN(C(=O)c3cn4nc(-c5ccc(C(F)(F)F)cc5)cc(C(C)(C)C)c4n3)C(C)(C)C2)[nH]n1` [Compound I-402], the IC50 in experiment [1] was greater than 1000 nM; in experiment [2], 1 nM; in experiment [3], 0.8 nM; in experiment [4], greater than 1000 nM.

Turning to `Cc1n[nH]c(C(=O)N2CCN(C(=O)c3cn4nc(-c5ccc(C(F)(F)F)cc5)cc(C(C)(C)C)c4n3)C(C)(C)C2)n1` [Compound I-403], the IC50 in experiment [1] is greater than 1000 nM; in experiment [2], 1.5 nM; in experiment [3] it was 1 nM; in experiment [4], greater than 1000 nM.

On to `Cc1cccc(-c2cc(C(C)(C)C)c3nc(C(=O)N4CCN(C(=O)c5ccn[nH]5)CC4(C)C)cn3n2)c1` [Compound I-404], for which the IC50 in experiment [1] was 690 nM; in experiment [2], 4.3 nM; in experiment [3], 0.9 nM; in experiment [4] it was greater than 1000 nM.

For the molecule `Cc1cc(-c2cc(C(C)C)c3nc(C(=O)N4CCN(c5cn[nH]c5)C(=O)C4(C)C)cn3n2)ccc1F` [Compound I-405], the IC50 was greater than 1000 nM in experiment [1], 1.8 nM in experiment [2], 1.6 nM in experiment [3] and greater than 1000 nM in experiment [4].

For `Cc1cccc(-c2cc(C(C)(C)C)c3nc(C(=O)N4CCN(C(=O)c5cc(C)n[nH]5)CC4(C)C)cn3n2)c1` [Compound I-406], the IC50 in experiment [1] was 370 nM; in experiment [2], 2.8 nM; in experiment [3], 2.2 nM; in experiment [4] it was greater than 1000 nM.

`Cc1cccc(-c2cc(C(C)(C)C)c3nc(C(=O)N4CCN(C(=O)c5c[nH]c(C)n5)CC4(C)C)cn3n2)c1` [Compound I-407]: the IC50 was greater than 1000 nM in experiment [1], 5.1 nM in experiment [2], 5.6 nM in experiment [3] and greater than 1000 nM in experiment [4].

With `Cc1cccc(-c2cc(C(C)(C)C)c3nc(C(=O)N4CCN(C(=O)c5nc(C)n[nH]5)CC4(C)C)cn3n2)c1` [Compound I-408], the IC50 is 540 nM in experiment [1], 4.3 nM in experiment [2], 2.8 nM in experiment [3] and greater than 1000 nM in experiment [4].

`Cc1cccc(-c2cc(C(C)(C)C)c3nc(C(=O)N4CCN(C(=O)C5CC(C)(O)C5)CC4(C)C)cn3n2)c1` (stereo not shown) [Compound I-409]: the IC50 in experiment [1] is 830 nM; in experiment [2], 1.7 nM; in experiment [3], 1.7 nM; in experiment [4], greater than 1000 nM.

Consider `Cc1cccc(-c2cc(C(C)(C)C)c3nc(C(=O)N4CCN(C(=O)c5nnc(C)o5)CC4(C)C)cn3n2)c1` [Compound I-410], for which the IC50 was 950 nM in experiment [1], 8.2 nM in experiment [2], 6.3 nM in experiment [3] and greater than 1000 nM in experiment [4].

On to `Cc1cccc(-c2cc(C(C)(C)C)c3nc(C(=O)N4CCN(C(=O)c5ccccn5)CC4(C)C)cn3n2)c1` [Compound I-411], for which the IC50 is 880 nM in experiment [1], 6.5 nM in experiment [2], 4.8 nM in experiment [3] and greater than 1000 nM in experiment [4].

As to `Cc1cccc(-c2cc(C(C)(C)C)c3nc(C(=O)N4CCN(C(=O)c5ncccn5)CC4(C)C)cn3n2)c1` [Compound I-412], the IC50 is 710 nM in experiment [1], 10 nM in experiment [2], 6.4 nM in experiment [3] and greater than 1000 nM in experiment [4].

Turning to `Cc1nc(C(=O)N2CCN(C(=O)c3cn4nc(-c5ccc(C(F)(F)F)cc5)cc(C(C)C)c4n3)C(C)(C)C2)n[nH]1` [Compound I-413], the IC50 in experiment [1] is greater than 1000 nM; in experiment [2] it was 4.3 nM; in experiment [3], 3.4 nM; in experiment [4] it was greater than 1000 nM.

In the case of `Cc1n[nH]c(C(=O)N2CCN(C(=O)c3cn4nc(-c5ccc(F)c(C)c5)cc(C(C)(C)C)c4n3)C(C)(C)C2)n1` [Compound I-414], the IC50 in experiment [1] was greater than 1000 nM; in experiment [2] it was 1.3 nM; in experiment [3], 1 nM; in experiment [4], greater than 1000 nM.

Regarding `Cc1ccc(-c2cc(C(C)(C)C)c3nc(C(=O)N4CCN(C(=O)[C@H]5C[C@@](C)(O)C5)CC4(C)C)cn3n2)cc1F` [Compound I-415], the IC50 is greater than 1000 nM in experiment [1], 0.5 nM in experiment [2], 0.3 nM in experiment [3] and greater than 1000 nM in experiment [4].

Take `Cc1nc(C(=O)N2CCN(C(=O)c3cn4nc(-c5ccc(C)c(F)c5)cc(C(C)(C)C)c4n3)C(C)(C)C2)n[nH]1` [Compound I-416]: the IC50 in experiment [1] was greater than 1000 nM; in experiment [2] it was 0.6 nM; in experiment [3] it was 0.6 nM; in experiment [4] it was greater than 1000 nM.

As to `Cc1cc(-c2cc(C(C)(C)C)c3nc(C(=O)N4CCN(c5c[nH]cn5)C(=O)C4(C)C)cn3n2)ccc1F` [Compound I-418], the IC50 was greater than 1000 nM in experiment [1], 7.1 nM in experiment [2], 7.6 nM in experiment [3] and greater than 1000 nM in experiment [4].

For `CC(C)(C)c1cc(-c2ccc(Cl)c(F)c2)nn2cc(C(=O)N3CCNC(=O)C3(C)C)nc12` [Compound I-419], the IC50 is greater than 1000 nM in experiment [1], 0.9 nM in experiment [2], 1.1 nM in experiment [3] and greater than 1000 nM in experiment [4].

Turning to `Cc1cc(C(=O)N2CCN(C(=O)c3cn4nc(-c5ccc(F)cc5)cc(C(C)(C)F)c4n3)C(C)(C)C2)[nH]n1` [Compound I-420], the IC50 in experiment [1] is greater than 1000 nM; in experiment [2], 2.4 nM; in experiment [3], 1.7 nM; in experiment [4], greater than 1000 nM.

For `Cc1ccc(-c2cc(C(C)(C)C)c3nc(C(=O)N4CCN(C(=O)c5cnc(C)[nH]5)CC4(C)C)cn3n2)cc1` [Compound I-422], the IC50 was greater than 1000 nM in experiment [1], 2 nM in experiment [2], 1.9 nM in experiment [3] and greater than 1000 nM in experiment [4].

For the molecule `Cc1ncc(C(=O)N2CCN(C(=O)c3cn4nc(-c5ccc(C(F)(F)F)cc5)cc(C(C)(C)C)c4n3)C(C)(C)C2)[nH]1` [Compound I-423], the IC50 in experiment [1] was greater than 1000 nM; in experiment [2] it was 2.2 nM; in experiment [3] it was 1.7 nM; in experiment [4], greater than 1000 nM.

For the molecule `Cc1ccc(-c2cc(C(C)(C)C)c3nc(C(=O)N4CCN(C(=O)c5ccn[nH]5)CC4(C)C)cn3n2)cc1F` [Compound I-424], the IC50 in experiment [1] is greater than 1000 nM; in experiment [2], 1.2 nM; in experiment [3], 0.9 nM; in experiment [4], greater than 1000 nM.

`Cc1ccc(-c2cc(C(C)(C)C)c3nc(C(=O)N4CCN(C(=O)c5ccccn5)CC4(C)C)cn3n2)cc1F` [Compound I-425]: the IC50 is greater than 1000 nM in experiment [1], 1.2 nM in experiment [2], 1.5 nM in experiment [3] and greater than 1000 nM in experiment [4].

`Cc1ccc(-c2cc(C(C)(C)C)c3nc(C(=O)N4CCN(C(=O)c5ncccn5)CC4(C)C)cn3n2)cc1F` [Compound I-426]: the IC50 in experiment [1] was greater than 1000 nM; in experiment [2], 1.8 nM; in experiment [3], 1.7 nM; in experiment [4], greater than 1000 nM.

Consider `Cc1cc(C(=O)N2CCN(C(=O)c3cn4nc(-c5ccc(C)c(F)c5)cc(C(C)(C)C)c4n3)C(C)(C)C2)[nH]n1` [Compound I-427], for which the 50% inhibitory concentration (IC50) in experiment [1] is greater than 1000 nM; in experiment [2], 0.7 nM; in experiment [3], 0.5 nM; in experiment [4], greater than 1000 nM.

For `CC(C)(C)c1cc(C2CCC(F)(F)CC2)nn2cc(C(=O)N3CCNC(=O)C3(C)C)nc12` [Compound I-428], the IC50 in experiment [1] was greater than 1000 nM; in experiment [2], 59.7 nM; in experiment [3] it was 30.7 nM; in experiment [4], greater than 1000 nM.

On to `CC(C)(C)c1cc(C2CCC(F)(F)CC2)nn2cc(C(=O)N3CCN(c4c[nH]cn4)C(=O)C3(C)C)nc12` [Compound I-430], for which the IC50 was greater than 1000 nM in experiment [1], 23.8 nM in experiment [2], 16.3 nM in experiment [3] and greater than 1000 nM in experiment [4].

`Cc1ncc(C(=O)N2CCN(C(=O)c3cn4nc(-c5ccc(C)c(F)c5)cc(C(C)(C)C)c4n3)C(C)(C)C2)[nH]1` [Compound I-431]: the IC50 in experiment [1] was greater than 1000 nM; in experiment [2], 1.6 nM; in experiment [3], 1.4 nM; in experiment [4] it was greater than 1000 nM.

`Cc1nnc(C(=O)N2CCN(C(=O)c3cn4nc(-c5ccc(C)c(F)c5)cc(C(C)(C)C)c4n3)C(C)(C)C2)o1` [Compound I-432]: the IC50 in experiment [1] is greater than 1000 nM; in experiment [2], 2.1 nM; in experiment [3], 1.9 nM; in experiment [4] it was greater than 1000 nM.

With `Cc1cc(C(=O)N2CCN(C(=O)c3cn4nc(-c5ccc(F)cc5)cc(C(C)(C)C)c4n3)C(C)(C)C2)no1` [Compound I-433], the IC50 in experiment [1] is greater than 1000 nM; in experiment [2] it was 1.1 nM; in experiment [3], 0.7 nM; in experiment [4], greater than 1000 nM.

For the molecule `Cc1cc(C(=O)N2CCN(C(=O)c3cn4nc(-c5ccc(Cl)cc5)cc(C(C)(C)C)c4n3)C(C)(C)C2)[nH]n1` [Compound I-434], the IC50 in experiment [1] is greater than 1000 nM; in experiment [2] it was 0.5 nM; in experiment [3], 0.5 nM; in experiment [4] it was greater than 1000 nM.

Take `CC(C)(C)c1cc(-c2ccc(Cl)cc2)nn2cc(C(=O)N3CCN(C(=O)c4ccn[nH]4)CC3(C)C)nc12` [Compound I-435]: the IC50 was greater than 1000 nM in experiment [1], 0.7 nM in experiment [2], 0.8 nM in experiment [3] and greater than 1000 nM in experiment [4].

The term IC50 denotes the midpoint of a concentration-inhibition curve.
